Test results from patent publication US6683184B2, “Piperazine derivatives and process for the preparation thereof” (Samjin Pharmaceutical Co., Ltd., priority 1999, dated 2004).
≈ marks a conversion by molar mass, not a printed value.

Tests used:
Format in all cases: cell-based
[1] = tested on: A549 (human non-small lung cell); assay: In vitro antitumor effect against human tumor cell lines, SRB assay, A549; details: A549 cells, 48 hours; for IC50: Homo sapiens, read-out: ED50 A 549
Experimental: (§1) In vitro antitumor effect against human tumor cell lines.
(§2) a. Human solid tumor cell lines, A549(non-small lung cell), SKMEL-2(melanoma), HCT-15(colon), SKOV-3(ovarian), XF-498(CNS) were cultured at 37° C. in 5% CO2 incubators using RPMI 1640 media containing 10% FBS, while they were transfer-cultured successively once or twice per week. Cell cultures were dissolved in a solution of 0.25% trypsin and 3 mM CDTA PBS(−) and then cells were separated from media which the cells were sticked on.
(§3) b. 5×10^3˜2×10^4 cells were added into each well of 96-well plate and cultured in 5% CO2 incubator, at 37° C., for 24 hours.
(§4) c. Each sample drug was dissolved in a little DMSO and diluted with the used medium to a prescribed concentration for experiments, wherein the final concentration of DMSO was controlled below 0.5%.
(§5) d. Medium of each well cultured for 24 hours as above b. was removed by aspiration. Each 200 μl of drug samples prepared in c. was added into each well and the wells were cultured for 48 hours. Tz(time zero) plates were collected at the point of time drugs were added.
(§6) e. According to the SRB assay method, cell fixing with TCA, staining with 0.4% SRB solution, washing with 1% acetic acid and elution of dye with 10 mM Tris solution were carried out on Tz plates and culture-ended plates, whereby OD values were measured at 520 nm.
(§7) a. Time zero(Tz) value was determined with measuring the SRB protein amounts of the Tz plates collected at the point of time drugs were added.
(§8) b. Control value(C) was determined with the OD values of wells untreated with a drug.
(§9) c. Drug-treated test value(T) was determined with the OD values of drug-treated wells.
(§10) d. Effects of drugs were estimated with growth stimulation, net growth inhibition, net killing etc., being calculated from Tz, C and T.
(§11) e. If T≧Tz, cellular response function was calculated by 100×(T−Tz)/(C−Tz), and if T<Tz, by 100×(T−Tz)/Tz.

SKMEL-2 (human melanoma) = assay: In vitro antitumor effect against human tumor cell lines, SRB assay, SKMEL-2; details: SK-MEL-2 cells, 48 hours; for IC50: Homo sapiens, read-out: ED50 SK-MEL-2
Experimental: as §1, §2, §3, §4, §5, §6, §7, §8, §9, §10, §11

XF 498 (human CNS) = assay: In vitro antitumor effect against human tumor cell lines, SRB assay, XF 498; details: 48 hours; for ED50 XF-498: XF-498 cells; for IC50: Homo sapiens, XF498, XF-498 cells, read-out: ED50 XF-498
Experimental: as §1, §2, §3, §4, §5, §6, §7, §8, §9, §10, §11

SKOV-3 (human ovarian) = assay: In vitro antitumor effect against human tumor cell lines, SRB assay, SKOV-3; details: SK-OV-3 cells, 48 hours; for IC50: Homo sapiens, read-out: ED50 SK-OV-3
Experimental: as §1, §2, §3, §4, §5, §6, §7, §8, §9, §10, §11

HCT-15 (human colon) = assay: In vitro antitumor effect against human tumor cell lines, SRB assay, HCT-15; details: HCT 15 cells, 48 hours; for IC50: Homo sapiens, read-out: ED50 HCT 15
Experimental: as §1, §2, §3, §4, §5, §6, §7, §8, §9, §10, §11

SMILES	ED50 A 549 [1] [µg/mL]	ED50 SK-MEL-2 (SKMEL-2 (human melanoma)) [ng/mL]	ED50 XF-498 (XF 498 (human CNS)) [ng/mL]	ED50 SK-OV-3 (SKOV-3 (human ovarian)) [µg/mL]	ED50 HCT 15 (HCT-15 (human colon)) [ng/mL]	IC50 [1] [µg/mL]	IC50 (SKMEL-2 (human melanoma)) [µg/mL]	IC50 (XF 498 (human CNS)) [µg/mL]	IC50 (SKOV-3 (human ovarian)) [µg/mL]	IC50 (HCT-15 (human colon)) [µg/mL]
COc1cc(OC)cc(N2CCN(C(=Nc3cc(CO)c(C)nc3OC)NO)CC2)c1 [Example 125, N-Hydroxy-N′-(5-hydroxymethyl-2-methoxy-6-methylpyridin-3-yl)-[4-(3,5-dimethoxyphenyl)piperazin-1-yl]carboxyimidamide]	0.0009 (≈ 0.00209 µM)	0.1 (≈ 0.000232 µM)	0.1 (≈ 0.000232 µM)	0.0008 (≈ 0.00185 µM)	0.1 (≈ 0.000232 µM)	–	–	–	–	–
COc1cc(OC)cc(N2CCN(C(=Nc3cc4ccccc4nc3OC)NO)CC2)c1 [Example 172, N-Hydroxy-N′-(2-methoxyquinolin-3-yl)-[4-(3,5-dimethoxyphenyl)-piperazin-1-yl]carboxyimidamide]	0.07 (≈ 0.16 µM)	20 (≈ 0.0457 µM)	30 (≈ 0.0686 µM)	0.08 (≈ 0.183 µM)	20 (≈ 0.0457 µM)	–	–	–	–	–
COc1nc2ccccc2nc1NC(=S)N1CCN(c2cc(F)cc(F)c2)CC1 [Example 68, 1-[(2-Methoxyquinoxalin-3-yl)aminothiocarbonyl]-4-(3,5-difluorophenyl)piperazine]	–	–	–	–	–	0.38 (≈ 0.915 µM)	0.34 (≈ 0.818 µM)	0.47 (≈ 1.13 µM)	0.86 (≈ 2.07 µM)	0.31 (≈ 0.746 µM)
COc1cc(OC)cc(N2CCN(C(=Nc3cc(C(C)O)c(C)nc3OC)NO)CC2)c1 (stereo not drawn) [Example 139, N-Hydroxy-N′-[5-(1-hydroxyethyl)-2-methoxy-6-methylpyridin-3-yl]-[4-(3,5-dimethoxyphenyl)piperazin-1-yl]carboxyimidamide]	0.0007 (≈ 0.00157 µM)	0.2 (≈ 0.000449 µM)	0.3 (≈ 0.000673 µM)	0.0007 (≈ 0.00157 µM)	0.4 (≈ 0.000898 µM)	–	–	–	–	–
COc1cc(C)c(C)cc1N=C(NO)N1CCN(c2cc(F)cc(F)c2)CC1 [Example 182, N-Hydroxy-N′-(4,5-dimethyl-2-methoxyphenyl-1-yl)-[4-(3,5-difluorophenyl)piperazin-1-yl]carboxyimidamide]	0.292 (≈ 0.748 µM)	33 (≈ 0.0845 µM)	103 (≈ 0.264 µM)	0.081 (≈ 0.207 µM)	6 (≈ 0.0154 µM)	–	–	–	–	–
COc1cc(OC)cc(N2CCN(C(=O)N(C)c3nc4ccccc4nc3OC)CC2)c1 [Example 53, 1-[(2-Methoxyquinoxalin-3-yl) N-methylaminocarbonyl]-4-(3,5-dimethoxyphenyl)piperazine]	–	–	–	–	–	0.17 (≈ 0.389 µM)	0.93 (≈ 2.13 µM)	0.27 (≈ 0.617 µM)	0.21 (≈ 0.48 µM)	0.05 (≈ 0.114 µM)
COc1nc2ccccc2nc1NC(=O)N1CCN(c2ccccc2SC)CC1 [Example 51, 1-[(2-Methoxyquinoxalin-3-yl)aminocarbonyl]-4-(2-methylt-hiophenyl)piperazine]	0.37 (≈ 0.904 µM)	280 (≈ 0.684 µM)	630 (≈ 1.54 µM)	0.68 (≈ 1.66 µM)	180 (≈ 0.44 µM)	–	–	–	–	–
COc1nc2ccccc2nc1N(C)C(=O)N1CCN(c2cc(C)cc(C)c2)CC1 [Example 55, 1-[(2-Methoxyquinoxalin-3-yl)N-methylaminocarbonyl]-4-(3,5-dimethylphenyl)piperazine]	–	–	–	–	–	0.34 (≈ 0.838 µM)	0.22 (≈ 0.543 µM)	0.41 (≈ 1.01 µM)	0.49 (≈ 1.21 µM)	0.33 (≈ 0.814 µM)
CCc1nc(OC)c(N=C(NO)N2CCN(c3cc(OC)cc(OC)c3)CC2)cc1C(=O)OC [Example 159, N-Hydroxy-N′-(6-ethyl-5-methoxycarbonyl-2-methoxypyridin-3-yl)-[4-(3,5-dimethoxyphenyl)piperazin-1-yl]carboxyimidamide]	0.029 (≈ 0.0612 µM)	2 (≈ 0.00422 µM)	6 (≈ 0.0127 µM)	0.010 (≈ 0.0211 µM)	0.6 (≈ 0.00127 µM)	–	–	–	–	–
